One series deals with RAW 267.4 cells. As to the kind of experiment: Osteoclast morphology and maturation (actin/DAPI immunofluorescence, TRAP staining). The series is classed as cell-based, mouse. An excerpt:
Treatment of RAW 267.4 cells with KBU2046 induces several structural and functional changes. It reduces RANKL-mediated formation of multinucleated cells, and those that do form have lower numbers of nuclei (see 40× panels, FIG. 4B). The characteristic prominent actin ring (white arrow) surrounding the resorptive cavity (yellow arrow) is readily apparent in control cells treated with RANKL ligand, but is lacking in KBU2046-treated cells (100×, panels). Consistent with it inhibiting maturation of RAW 267.4 cells, TRAP staining is decreased in KBU2046-treated cells (FIG. 4C).
FIG. 4 represents the KBU2046 inhibition of osteoclast function. FIG. 4A compares effects on Raf1 activation. RAW 267.4 cells were treated with RANKL for 4 days, treated with 10 μM KBU2046 for the indicated time periods, and Western blot for the denoted proteins performed. (B) Effects on cell morphology. RAW 267.4 cells were treated with RANKL and with KBU2046 for 4 days, or not, and denoted, and stained for actin (green) and DAPI (blue); white arrow denotes an actin ring, yellow arrow a resorptive cavity. Representative immunofluorescent images are depicted. (C) Tartrate resistant acid phosphatase (TRAP) expression. Cells were treated as in B, stained for TRAP (denoted by presence of red), and representative images from light microscopy depicted. (D) Bone degradation. RAW 267.4 cells were plated onto Osteo Assay plates, treated with RANKL for 6 days and with KBU2046 (or vehicle for controls) as indicated and bone surface area quantified. Data are the mean±SEM (N=3 replicates) of bone surface area, expressed as the percentage of control cells; * denotes P<0.05 compared to control.
Raw 264.7 cells were grown in differentiation medium (described below), with or without KBU2046, for 4 days on a Chamber Slide (Nunc Lab-Tek). Chambers were washed once with PBS, followed by 10-minute fixation in cold 10% neutral-buffered formalin (VWR) and a post-fixation wash with PBS. […] The cells were then incubated for 2 hours at 4° C. in Dylight Phallodin (Cell Signaling technology, #12935) antibody diluted 1:40 in 1×PBS with 1% BSA and 0.3% Triton X-100. Subsequently, the slide was washed once with PBS, a coverslip mounted with ProLong Gold Antifade Reagent with DAPI (Cell Signaling Technology, #8961), and imaged on a Confocal Microscope (Nikon/Yokogawa Spinning Disc).

A further series concerns PC3-M cells. The series can be described thus: 7 day colony formation assay, chemotherapy with or without KBU2046. Format: cell-based, human. How it is done:
To assess the impact of cytotoxic chemotherapy on PCa growth kinetics seven-day soft agar colony formation assays and three-day MTT cell growth inhibition assays were performed as described by us ([…] et al., Cancer Lett 352, 179-186 (2014)). MTT assays were in replicates of N=3, and were repeated, soft agar assays were in replicates of N=2 and are presented as mean number of colonies, expressed as percent of untreated controls. For PC3-M PCa and MDA-MB-231 triple negative breast cancer cells, data are the mean±SD (N=2 replicates) number of colonies in 7 day colony formation assays. All data are expressed as the percentage of untreated control cells. Cells were treated with 10 μM KBU2046 or vehicle (CO), and the indicated concentration and type of chemotherapy.

The test system of series [1] is human prostate and breast cancer. The settings on record: oral administration, nanomolar concentrations; cited from earlier work.
Another series has as its system LNCaP cells. As to the kind of experiment: SRB growth inhibition assay, LNCaP. The settings on record: 10 μM enzalutamide, 10 μM KBU2046 added to control or enzalutamide treated cells, 72 hours. The series is classed as cell-based, human. How it is done: LNCaP or VCaP cells cultured in hormone free media were treated with R1881 (R), KBU2046 (46) and/or enzalutamide (E). (FIGS. 3A and 3B) Effects on AR-responsive gene expression. PSA expression was measured by qRT/PCR, normalized to GAPDH and expressed as a percent of control cells (N=3 replicates); * denotes P<0.05 for groups separated by bar. (FIGS. 3C and 3D) Effects on cell growth. Three day growth assays were performed. Data are the number of viable cells, expressed as % of control (N=3 replicates); * P<0.05 compared to control. (E) Effects on AR activation. Western blots of nuclear (N) and cytoplasmic (C) preparations of cell extracts were probed for AR, laminin 1 or α-tubulin. (FIGS. 3F and 3G) Effects on tumor outgrowth after androgen deprivation therapy. LNCaP/AR-luc cells were implanted subcutaneously (N=6 mice/cohort) or orthotopic (N=15 mice/cohort were implanted; N=5 yielded tumors) into castrate mice, treatment with KBU2046 began as noted, and weekly IVIS imaging performed. Data are tumor size, expressed as luminescence intensity. All data are expressed as mean±SEM.
Enzalutamide mediated growth inhibition was assessed using Sulforhodamine B (SRB) growth inhibition assays, were performed as previously described (49). In brief, LNCaP and VCaP cells were pre-incubated in charcoal-striped medium for 48 hours and then seeded (1.9×10^4) in 96-well plates. […]

`O=C1c2ccccc2OCC1c1ccc(F)cc1` (stereo not drawn) [KBU2046, 3-(4-fluorophenyl)chroman-4-one]: in the series on RAW 267.4 cells (RANKL and KBU2046 for 4 days), the “RANKL-mediated formation of multinucleated cells” value is given as “reduces”, the TRAP staining entry is recorded as “decreased” and the “actin ring surrounding the resorptive cavity” value is on record as “lacking”. For the same compound, the “cellular extensions of undifferentiated cells” value with RAW 267.4 cells (absence of RANKL) is listed as “markedly reduces”. In the series on PC3-M cells (10 μM KBU2046, PC3-M cells, FIG. 14), the “effect on activity of adriamycin” value was “does not inhibit”. Further, the “effect on activity of vinblastine” value with PC3-M cells (10 μM KBU2046, PC3-M cells, FIG. 16) was “does not inhibit”. Further, in the series with PC3-M cells (10 μM KBU2046, PC3-M cells, FIG. 18), the “effect on activity of taxol” value is listed as “does not inhibit”. The “interference upon cytotoxic action of adriamycin, taxol and vinblastine” value with PC3-M cells (KBU2046 co-administered, PC3-M cells) was “lack of interference”. For the same compound, in series [1], the bone destruction entry is “decreases”, the metastasis entry was “inhibits” and the survival entry is given as “prolongs”. The cell growth entry with LNCaP cells is recorded as “no significant effect”.

The values above are taken from patent US20220133894A1, “BISPHOSPHONATE-LINKED COMPOUNDS” (OREGON HEALTH & SCIENCE UNIVERSITY, priority 2019, published 2022).
